Laboratory results published in BigSolDB 2.1.

For CC(=O)Oc1ccccc1C(=O)O, which solubility (mole fraction) (in acetone, 281.9 K) is on record?
The solubility (mole fraction) was 0.061.

What about the solubility (mole fraction) (in acetone, 290.6 K) of the same molecule?
Its solubility (mole fraction) is 0.075.

And the solubility (mole fraction) (in acetone, 297.9 K)?
Its solubility (mole fraction) is 0.088.

And the solubility (mole fraction) (in acetone, 304.4 K)?
The solubility (mole fraction) was 0.101.

And the solubility (mole fraction) (in acetone, 310.6 K)?
The solubility (mole fraction) was 0.114.

What about the solubility (mole fraction) (in acetone, 315.3 K) of the same molecule?
Its solubility (mole fraction) is 0.127.

And the solubility (mole fraction) (in acetone, 319.8 K)?
The solubility (mole fraction) was 0.139.

What about the solubility (mole fraction) (in acetone, 323.3 K) of the same molecule?
Its solubility (mole fraction) is 0.151.

And the solubility (mole fraction) (in acetone, 326.3 K)?
Its solubility (mole fraction) is 0.162.

What about the solubility (mole fraction) (in ethanol, 276.3 K) of the same molecule?
Its solubility (mole fraction) is 0.025.

And the solubility (mole fraction) (in ethanol, 291.9 K)?
The solubility (mole fraction) was 0.049.

And the solubility (mole fraction) (in ethanol, 302.4 K)?
Its solubility (mole fraction) is 0.071.

What about the solubility (mole fraction) (in ethanol, 310 K) of the same molecule?
Its solubility (mole fraction) is 0.093.

And the solubility (mole fraction) (in ethanol, 316.5 K)?
The solubility (mole fraction) was 0.113.

And the solubility (mole fraction) (in ethanol, 321.5 K)?
The solubility (mole fraction) was 0.133.

What about the solubility (mole fraction) (in ethanol, 325.9 K) of the same molecule?
The solubility (mole fraction) was 0.152.

And the solubility (mole fraction) (in ethanol, 330.4 K)?
The solubility (mole fraction) was 0.17.

What about the solubility (mole fraction) (in ethanol, 333.4 K) of the same molecule?
The solubility (mole fraction) was 0.187.

What about the solubility (mole fraction) (in ethanol, 336.6 K) of the same molecule?
Its solubility (mole fraction) is 0.204.

And the solubility (mole fraction) (in isopropanol, 281.6 K)?
The solubility (mole fraction) was 0.013.

What about the solubility (mole fraction) (in isopropanol, 291.8 K) of the same molecule?
The solubility (mole fraction) was 0.032.

And the solubility (mole fraction) (in isopropanol, 304.1 K)?
Its solubility (mole fraction) is 0.063.

And the solubility (mole fraction) (in isopropanol, 312.9 K)?
The solubility (mole fraction) was 0.091.

And the solubility (mole fraction) (in isopropanol, 316.1 K)?
Its solubility (mole fraction) is 0.102.

And the solubility (mole fraction) (in isopropanol, 320.4 K)?
Its solubility (mole fraction) is 0.118.

What about the solubility (mole fraction) (in isopropanol, 322.7 K) of the same molecule?
The solubility (mole fraction) was 0.128.

What about the solubility (mole fraction) (in isopropanol, 325.8 K) of the same molecule?
The solubility (mole fraction) was 0.143.

And the solubility (mole fraction) (in isopropanol, 327.7 K)?
The solubility (mole fraction) was 0.153.

What about the solubility (mole fraction) (in isopropanol, 330.2 K) of the same molecule?
The solubility (mole fraction) was 0.167.

What about the solubility (mole fraction) (in propylene glycol, 295.7 K) of the same molecule?
The solubility (mole fraction) was 0.017.

What about the solubility (mole fraction) (in propylene glycol, 301.1 K) of the same molecule?
Its solubility (mole fraction) is 0.025.

What about the solubility (mole fraction) (in propylene glycol, 305.1 K) of the same molecule?
The solubility (mole fraction) was 0.033.

And the solubility (mole fraction) (in propylene glycol, 308.2 K)?
The solubility (mole fraction) was 0.041.

What about the solubility (mole fraction) (in propylene glycol, 313.6 K) of the same molecule?
Its solubility (mole fraction) is 0.056.

What about the solubility (mole fraction) (in propylene glycol, 318.3 K) of the same molecule?
Its solubility (mole fraction) is 0.071.

And the solubility (mole fraction) (in propylene glycol, 323.7 K)?
Its solubility (mole fraction) is 0.092.

And the solubility (mole fraction) (in propylene glycol, 327.9 K)?
The solubility (mole fraction) was 0.112.

What about the solubility (mole fraction) (in propylene glycol, 330.7 K) of the same molecule?
Its solubility (mole fraction) is 0.126.

What about the solubility (mole fraction) (in propylene glycol, 333.9 K) of the same molecule?
The solubility (mole fraction) was 0.145.
